Results as given in patent publication US5703097A, “5-pyrrolyl-2-pyridylmethylsulfinyl benzimidazole derivatives” (priority 1994, dated 1997).

How the values were obtained:
H^+ /K^+ -ATPase = target: T1, H^+ /K^+ -ATPase (Oryctolagus cuniculus, UniProt P27112); test: Inhibition of enzyme activity: in vitro inhibition of H+/K+-ATPase (TEST 1); type: biochemical, rabbit; details: 5 min pre-incubation at 37° C., 4 mM ATP
T1 construct: The gastric mucous membrane was removed from a rabbit; from tissue; host or cells: rabbit gastric mucosa, microsomal fraction (77,000 g)
Description: In this test, omeprazole [5-methoxy-2-[[(4-methoxy-3,5-dimethyl-2-pyridinyl)methyl]sulfinyl]-1H-benzimidazole] was used as the control compound.
The gastric mucous membrane was removed from a rabbit and then centrifuged with 77,000 g using a ultra-centrifuge to separate the microsomal fraction which was used as the source of H^+ /K^+ -ATPase enzyme for this test. 60 μg of H^+ /K^+ -ATPase was pre-incubated with the sample (the compound according to the present invention) for 5 minutes at 37° C. and then 4 mM ATP as the substrate and 4 mM Mg^++, 20 mM K^+ as the cofactor were added thereto. Then, the amount of inorganic phosphorus thus produced was determined using a spectrophotometer at 660 nm and converted into the amount of protein. […]

gastric juice secretion = test: Effect on inhibition of gastric juice secretion, in vivo, Shay method (TEST 2); parameters: species or system rat (SD male rats); details: for Volume of gastric juice / Inhibition rate, gastric juice secretion: 5 hours; for Volume of gastric juice: pylorus-ligated rats; for Inhibition rate, gastric juice secretion: vs normal group
Description: (§1) The specific test methods are as follows.
(§2) SD male rats (200±20 g) were fasted for 24 hours, except for water, and then anesthesized with ether. The abdomen of rats was incised and then the pylorus was ligated. The test compounds were suspended or dissolved in 5% CMC (carboxymethylcellulose) and injected into duodenum. After the abdomen was sutured, the rats were allowed to stand for 5 hours and then sacrificed with ether. The stomach was removed from rats and the gastric juices were collected. The gastric juice was centrifuged with 10,000 xg for 10 minutes at 4° C. to remove the precipitate. The amount of gastric juice and acidity were determined using pH 7.0 end point assay with 0.02N NaOH and then the total acid output was calculated.

gastric acidity = test: Effect on inhibition of acidity (total acid output), in vivo, Shay method (TEST 2); parameters: species or system rat (SD male rats); details: for Volume (acidity, total acid output) / Inhibition rate, acidity: 5 hours; for Volume (acidity, total acid output): pylorus-ligated rats; for Inhibition rate, acidity: vs normal group
Description: as §1, §2

in vivo = details: mouse, po
Description: (§3) Five weeks aged ICR (male, female) mouse were pre-bred in the breeding cage for one week and then the animals showing a smooth gain in body weight were randomly selected and used in this test. The amount to be administered to the test animals was established on the basis of the maximum dose of 4,000 mg/kg with the common ratio of 1.5.
(§4) The test compounds in a powder form were suspended in 0.5% methylcellulose and administered per oral using a syringe. The other specific conditions for administration are described in the following.
(§5) In the above test, the control group received only 0.5% methylcellulose.

ICR (male, female) mouse = test: in vivo; details: po
Description: as §3, §4, §5

[1] = in words, even at a lower dose than that of the known anti-ulcer agent

T1 sequence (P27112 2-1035 limits assumed): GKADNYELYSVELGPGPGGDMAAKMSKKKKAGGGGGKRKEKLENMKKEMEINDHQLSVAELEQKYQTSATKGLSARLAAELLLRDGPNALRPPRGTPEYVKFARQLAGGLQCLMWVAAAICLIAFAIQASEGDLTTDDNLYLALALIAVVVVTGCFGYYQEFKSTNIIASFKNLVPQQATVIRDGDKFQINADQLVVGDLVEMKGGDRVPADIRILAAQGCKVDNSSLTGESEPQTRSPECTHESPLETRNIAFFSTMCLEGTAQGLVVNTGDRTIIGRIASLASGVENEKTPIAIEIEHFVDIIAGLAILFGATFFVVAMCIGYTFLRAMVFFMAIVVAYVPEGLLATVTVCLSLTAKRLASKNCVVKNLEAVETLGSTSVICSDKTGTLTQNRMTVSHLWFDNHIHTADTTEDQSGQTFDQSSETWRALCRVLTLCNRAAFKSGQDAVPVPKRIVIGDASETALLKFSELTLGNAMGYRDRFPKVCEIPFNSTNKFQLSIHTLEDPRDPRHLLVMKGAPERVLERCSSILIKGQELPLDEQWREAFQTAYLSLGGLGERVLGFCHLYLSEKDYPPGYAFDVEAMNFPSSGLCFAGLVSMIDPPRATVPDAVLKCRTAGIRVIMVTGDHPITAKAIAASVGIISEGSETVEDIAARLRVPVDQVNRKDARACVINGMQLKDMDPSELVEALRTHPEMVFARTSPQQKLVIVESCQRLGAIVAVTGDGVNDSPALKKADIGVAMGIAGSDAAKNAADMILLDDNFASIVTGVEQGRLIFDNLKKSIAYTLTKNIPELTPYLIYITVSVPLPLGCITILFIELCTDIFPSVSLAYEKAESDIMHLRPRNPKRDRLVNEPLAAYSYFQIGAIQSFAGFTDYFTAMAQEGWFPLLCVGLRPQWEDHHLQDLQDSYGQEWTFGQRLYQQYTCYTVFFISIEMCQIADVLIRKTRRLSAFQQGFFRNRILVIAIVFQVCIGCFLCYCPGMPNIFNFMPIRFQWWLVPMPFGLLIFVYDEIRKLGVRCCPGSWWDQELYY
T1 sequence (P18597 whole entry partner): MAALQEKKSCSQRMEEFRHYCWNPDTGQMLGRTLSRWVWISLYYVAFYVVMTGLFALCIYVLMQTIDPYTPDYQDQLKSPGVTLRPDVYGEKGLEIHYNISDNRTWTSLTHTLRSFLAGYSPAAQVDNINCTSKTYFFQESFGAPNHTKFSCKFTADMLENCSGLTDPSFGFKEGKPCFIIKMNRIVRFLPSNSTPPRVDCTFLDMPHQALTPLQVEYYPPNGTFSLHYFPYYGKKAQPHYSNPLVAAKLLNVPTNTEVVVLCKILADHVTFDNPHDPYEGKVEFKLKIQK

COc1ccnc(C[S+]([O-])c2nc3cc(-n4cccc4)ccc3[nH]2)c1C (stereo not drawn) [Compound 2, 2-[[(4-methoxy-3-methyl)-2-pyridinyl]methylsulfinyl]-5-(1H-pyrrol-1-yl)-1H-benzimidazole]
IC50 (H^+ /K^+ -ATPase): 23 µM
Volume of gastric juice (gastric juice secretion; 3 mg/kg, into duodenum): 1.98 ± 0.23 ml/100 g BW
Inhibition rate, gastric juice secretion (gastric juice secretion; 3 mg/kg, into duodenum): 46.45%
Volume of gastric juice (gastric juice secretion; 10 mg/kg, into duodenum): 1.31 ± 0.10 ml/100 g BW
Inhibition rate, gastric juice secretion (gastric juice secretion; 10 mg/kg, into duodenum): 64.55%
Volume of gastric juice (gastric juice secretion; 30 mg/kg, into duodenum): 0.99 ± 0.14 ml/100 g BW
Inhibition rate, gastric juice secretion (gastric juice secretion; 30 mg/kg, into duodenum): 73.11%
ED50 (gastric juice secretion; Rattus norvegicus, 5 h, rats, into duodenum, read-out: ED50 for the effect on inhibition of gastric acid secretion): 3.6 mg/kg
effect for inhibition of gastric acid secretion (gastric juice secretion; in words): good effects
inhibition of gastric juice secretion (gastric juice secretion; [1]): strong inhibition of gastric juice secretion
Volume (acidity, total acid output) (gastric acidity; 3 mg/kg, into duodenum): 31.09 ± 4.10 μ Eq/hr
Inhibition rate, acidity (gastric acidity; 3 mg/kg, into duodenum): 60.08%
Volume (acidity, total acid output) (gastric acidity; 10 mg/kg, into duodenum): 10.20 ± 1.93 μ Eq/hr
Inhibition rate, acidity (gastric acidity; 10 mg/kg, into duodenum): 86.90%
Volume (acidity, total acid output) (gastric acidity; 30 mg/kg, into duodenum): 5.32 ± 3.30 μ Eq/hr
Inhibition rate, acidity (gastric acidity; 30 mg/kg, into duodenum): 93.17%
ED50 (gastric acidity; Rattus norvegicus, 5 h, rats, into duodenum): 1.6 mg/kg
effect for lowering acidity (gastric acidity; in words): good effects
acidity lowering effect (gastric acidity; [1]): high acidity lowering effect
LD50 (in vivo): ≥ 4000 mg/kg
LD50 (ICR (male, female) mouse): > 4000.0 mg/kg
change in body weight (ICR (male, female) mouse): does not affect the normal change in body weight
change in internal and external organs (ICR (male, female) mouse): no effect on the internal and external organs
safety (ICR (male, female) mouse): very safe compound
